Data set [1] concerns MDSCs. Nature of the data set: Inhibition of MDSC chemotaxis (Transwell, tumor-conditioned medium). It counts as cell-based, mouse. The conditions noted are these: Mus musculus, read-out: Suppression Rate (MDSC chemotaxis). The procedure: Hepa1-6 mouse hepatocellular carcinoma cells were uniformly seeded into 6-well plates. After cells reached confluence, supernatant was aspirated, and 1-1.5 mL fresh medium was added to each well. Following 24 h culture, supernatant was collected, centrifuged at 1600 rpm for 5 min, aspirated, and filtered through a 0.22 μm membrane to obtain tumor-conditioned medium for subsequent use. […] Under sterile conditions, remove the tibia, cut both ends of the bone, and aspirate the bone marrow into a 1 mL syringe. Repeat flushing into a 15 mL centrifuge tube. Centrifuge at 1600 rpm for 5 min to collect bone marrow cells. Wash twice with 1×PBS. […] Count cells, adjust density to 1×10^6 cells/mL, and uniformly seed into 24-well plates at 300 μL per well. […] Centrifuge at 1600 rpm for 5 min, remove supernatant, resuspend cells in 300 μL fresh medium, and place into Transwell chambers. […] Co-culture for 24 h.

The conditions of data set [2]: 8 h; cited from earlier work.
The test system of data set [3] is rat arthritis. Conditions: in vivo; cited from earlier work.
Data set [4] in a line: Safety evaluation, mouse body weight (30 days oral). It counts as in vivo, C57BL/6 mice. Also noted: Mouse body weight: unit not given here. Conditions: for Mouse body weight: oral gavage once daily. An excerpt:
(§1) The Normal group received an equal volume of solvent (saline).

A short description of data set [5]: Safety evaluation, mouse survival rate (30 days oral). The conditions noted are these: for survival at 720 h: mouse, in vivo, female, oral. It is filed as in vivo, C57BL/6 mice.
Description: as §1

Data set [6] concerns serum creatinine and blood urea nitrogen. Nature of the data set: Diabetic nephropathy (STZ/HFD), serum creatinine and BUN. It counts as in vivo, C57/BL6J mice. Conditions: 8 weeks. The method, then: Experimental animals: C57/BL6J mice, male, 12 weeks old, purchased from GemPharmatech LLC. Production license number: SCXK(Su)2023-0009. […] Animals were acclimated for 7 days before use in experiments.
Administer streptozotocin (STZ, 50 mg/kg) via intraperitoneal injection for 5 consecutive days. After 72 hours, select mice with fasting blood glucose levels exceeding 16.7 mmol/L as model mice. […] Model mice were fed a high-fat diet (HFD) providing 60% of energy from fat for 8 weeks. After 8 weeks, gavage administration commenced.
Specimen Collection: One hour after the last drug administration, enucleate the eyeball to collect blood. Allow blood to stand at room temperature for 2 hours, then centrifuge at 3000 rpm for 20 minutes. Aspirate the serum, aliquot it, and store at −70° C. for future use. After blood collection, euthanize the mice by cervical dislocation. Open the abdominal cavity, remove the kidneys, and dissect away the perirenal fat and capsule. Store the tissue at −70° C. for future use.
Serum Creatinine (Scr) and Blood Urea Nitrogen (BUN) Assay: For each sample, 10 μL of serum was used for creatinine and urea level detection. Samples were added sequentially strictly following the kit instructions. After incubation at 37° C., absorbance values were measured using an enzyme-linked immunosorbent assay (ELISA) reader. The concentration levels of each indicator were calculated based on the standard curve.

Data set [7] concerns serum TC and TG. Briefly: HFD-induced atherosclerosis, serum total cholesterol and triglyceride. Conditions: for Serum TC / Serum TG: 8 weeks. Also noted: Serum TC / Serum TG: unit not given here. It is filed as in vivo, APOE−/− mice. The procedure: Experimental animals: C57BL and APOE^−/− mice, male, 8 weeks old, purchased from GemPharmatech LLC. Production license number: SCXK(Su)2023-0009. […] They were acclimated for 7 days before use in experiments.
Normal group (C57BL), model group (HFD/APOE^−/−), positive control drug VTX3232 (10 mg/kg) group, compound 103 (0.3, 1, 3, 10 and 30 mg/kg) group, with 6 mice per group. Oral administration was performed continuously for 8 weeks.
Allow blood to stand at room temperature for 2 hours, then centrifuge at 3000 rpm for 20 minutes. Aspirate the serum, aliquot it, and store at −70° C. for future use. After blood collection, euthanize mice by cervical dislocation. Open the abdominal cavity, remove heart and aorta. […] Store remaining tissues at −80° C. for future use.
Serum Total Cholesterol (TC) and Triglyceride (TG) Assay: For each sample, 10 μL of serum was used for […]. Samples were added sequentially strictly according to the kit instructions, incubated at 37° C., and measured for absorbance values using an enzyme-linked immunosorbent assay (ELISA) reader. The concentration levels of each indicator were calculated based on the standard curve.

`C=C1C(=O)O[C@@H]2[C@H]3C(C)=CC[C@@]34O[C@@]4(C)CC[C@@H]12` [Arg, Arglabin, reference compound]: in data set [1], the inhibition at 1 µM was 42.5% and the inhibition at 10 µM came to 73.2%. The “degradation rate in gastric fluid” value in data set [2] is 50%. Also, in data set [3], the joint swelling entry is reported as “significantly suppressed”; the “serum levels of TNF-α, IL-1β, and IL-6” value was “lowered”.
In the case of `CN(C)C[C@@H]1C(=O)O[C@H]2[C@H]1CC[C@@]1(C)C[C@]13CC[C@@](C)(O)[C@H]23` [Compound 20], the body weight result in data set [4] (500, 1000 mg/kg oral, 30 days, P>0.05) was “no significant effect”. The Mouse body weight in data set [4] (female, 500 mg/kg, day 1) is given as 100.00 ± 0.00; in data set [4] (female, 500 mg/kg, day 5), 100.41 ± 0.43; in data set [4] (female, 500 mg/kg, day 10) it was 99.01 ± 1.34; in data set [4] (female, 500 mg/kg, day 15), 100.03 ± 0.95; in data set [4] (female, 500 mg/kg, day 20), 100.52 ± 0.74; in data set [4] (female, 500 mg/kg, day 25) it was 99.81 ± 1.72. Also, the Mouse body weight was 99.79 ± 2.55 in data set [4] (female, 500 mg/kg, day 30); 100.00±0.00 in data set [4] (female, 1000 mg/kg, day 1); 101.96 ± 0.55 in data set [4] (female, 1000 mg/kg, day 5); 101.80 ± 2.02 in data set [4] (female, 1000 mg/kg, day 10); 99.77 ± 2.60 in data set [4] (female, 1000 mg/kg, day 15); 101.04 ± 2.13 in data set [4] (female, 1000 mg/kg, day 20). Besides, the Mouse body weight in data set [4] (female, 1000 mg/kg, day 25) was found to be 99.06 ± 3.56; in data set [4] (female, 1000 mg/kg, day 30), 100.67 ± 0.91; in data set [4] (male, 500 mg/kg, day 1) it was 100.00 ± 0.00; in data set [4] (male, 500 mg/kg, day 5) it was 100.31 ± 0.89; in data set [4] (male, 500 mg/kg, day 10) it was 101.51 ± 4.00; in data set [4] (male, 500 mg/kg, day 15) it was 99.27 ± 2.11. Besides, the Mouse body weight came to 101.29 ± 0.40 in data set [4] (male, 500 mg/kg, day 20); 98.93 ± 0.60 in data set [4] (male, 500 mg/kg, day 25); 100.10 ± 1.08 in data set [4] (male, 500 mg/kg, day 30); 100.00 ± 0.00 in data set [4] (male, 1000 mg/kg, day 1); 101.48 ± 1.30 in data set [4] (male, 1000 mg/kg, day 5); 101.22 ± 0.84 in data set [4] (male, 1000 mg/kg, day 10). The Mouse body weight is given as 100.47 ± 1.28 in data set [4] (male, 1000 mg/kg, day 15); 100.15 ± 2.76 in data set [4] (male, 1000 mg/kg, day 20); 98.35 ± 1.14 in data set [4] (male, 1000 mg/kg, day 25); 100.71 ± 0.53 in data set [4] (male, 1000 mg/kg, day 30). Moreover, the survival rate result in data set [5] (500 and 1000 mg/kg oral) is recorded as “no significant effect”. Also, the survival at 720 h in data set [5] (500 mg/kg) and in data set [5] (1000 mg/kg) was 100% in each case.
On to `CC1=C2CC[C@@](C)(OC(=O)N3CCCC3)[C@@H]2[C@H]2OC(=O)[C@@H](CN3CCCC3)[C@@H]2CC1` [Compound 103], for which the BUN in data set [6] (1 mg/kg gavage) stood at 54.34 ± 10.67; in data set [6] (10 mg/kg gavage), 38.10 ± 2.88. In addition, the “Scr (serum creatinine)” value was determined as 23.48 ± 6.73 in data set [6] (1 mg/kg gavage) and 14.90 ± 8.06 in data set [6] (10 mg/kg gavage). Besides, the “Serum TC” value turned out to be 18.86 ± 1.44 in data set [7] (0.3 mg/kg, oral); 18.71 ± 1.45 in data set [7] (1 mg/kg, oral); 17.44 ± 1.83 in data set [7] (3 mg/kg, oral); 17.75 ± 1.62 in data set [7] (10 mg/kg, oral); 17.65 ± 1.35 in data set [7] (30 mg/kg oral). For the same compound, the “Serum TG” value in data set [7] (0.3 mg/kg, oral) is 2.69 ± 0.86; in data set [7] (1 mg/kg, oral), 2.87 ± 0.42; in data set [7] (3 mg/kg, oral), 2.56 ± 0.93; in data set [7] (10 mg/kg, oral) it was 3.01 ± 0.89; in data set [7] (30 mg/kg oral) it was 2.91 ± 0.59. The “serum TC and TG levels compared with the model group” value in data set [7] (0.3, 1, 3, 10, 30 mg/kg oral) is “no significant changes”.
